Experimental data: PubChem BioAssay (NCI)
Where “and” joins values, the source holds several entries; their conditions need not be identical. Equal values may be shown once.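 Tested at 5 concentrations; 48 h exposure; 96-well plates; endpoints linearly interpolated, else capped at highest concentration. At the GI50, growth is halved. Definition used: TGI = concentration required for complete inhibition of growth.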

Legend:
Experiment in all cases: DTP human tumour cell line panel, 48 h
HCC-2998 colon = tested on: HCC-2998 colon
SF-268 CNS = tested on: SF-268 CNS
A549 NSCLC = tested on: A549 NSCLC
UACC-257 melanoma = tested on: UACC-257 melanoma
SK-MEL-2 melanoma = tested on: SK-MEL-2 melanoma
OVCAR-8 ovarian = tested on: OVCAR-8 ovarian
SK-OV-3 ovarian = tested on: SK-OV-3 ovarian
SNB-19 CNS = tested on: SNB-19 CNS
RPMI-8226 leukemia = tested on: RPMI-8226 leukemia
COLO 205 colon = tested on: COLO 205 colon

Compound | GI50 (HCC-2998 colon) | TGI (HCC-2998 colon) | TGI (SF-268 CNS) | TGI (A549 NSCLC) | TGI (UACC-257 melanoma) | TGI (SK-MEL-2 melanoma) | TGI (OVCAR-8 ovarian) | TGI (SK-OV-3 ovarian) [µM] | TGI (SNB-19 CNS) [µM] | TGI (RPMI-8226 leukemia) | TGI (COLO 205 colon) | GI50 (SF-268 CNS) [µM] | GI50 (A549 NSCLC) [µM] | GI50 (UACC-257 melanoma) [µM] | GI50 (SK-MEL-2 melanoma) [µM] | GI50 (OVCAR-8 ovarian) [µM] | GI50 (SK-OV-3 ovarian) [µM] | GI50 (SNB-19 CNS) [µM] | GI50 (RPMI-8226 leukemia) [µM] | GI50 (COLO 205 colon) [µM]
NCC(=O)OCN1C(=O)C2C3C=CC(C2C1=O)C1C2C(=O)N(COC(=O)CN)C(=O)C2C31 (stereo unspecified) | 31.2 µM and 69.9 µM | 94.8 µM and > 100 µM | 41.1 µM and 48.6 µM | 63.7 µM and 60.6 µM | > 100 µM and 77.6 µM | 38.6 µM and 41.2 µM | 47.4 µM and 39 µM | > 100 | > 100 | 72.5 µM and 59.7 µM | 36.4 µM and 32.2 µM |  |  |  |  |  |  |  |  | 
C=C(C)[C@@H]1CC[C@]2(c3ncc(C)o3)CC[C@]3(C)[C@H](CC[C@@H]4[C@@](C)(CCC#N)[C@H](C(=C)C)CC[C@]43C)[C@@H]12 | 3.51 µM | 12.4 µM | 18.9 µM | 22.3 µM | 24.4 µM | 33.7 µM | 21.9 µM | 25.2 | 14.5 | 6.9 µM | 21.4 µM | 4.68 | 6.19 | 9.02 | 16.4 | 6.57 | 11.4 | 3.66 | 2.44 | 5.79
COc1cccc(NC(=O)c2ccc(C(F)(F)F)nc2Nc2ccc(Cl)cc2C)c1 | 2.9 µM | 18.7 µM | 32.6 µM | 22.4 µM | 26.2 µM | 21.9 µM | 24.1 µM | 27.8 | 28.7 | 28.4 µM | 25.8 µM | 13.8 | 10.6 | 13.4 | 10.3 | 11.8 | 13.4 | 13.8 | 5.54 | 10.4
N#CC(C(=N/NC(N)=S)/C(=N\NC(N)=S)C(C#N)c1ccccc1)c1ccccc1 (stereo unspecified) |  | > 10 µM | > 10 µM | > 10 µM | > 10 µM | > 10 µM | > 10 µM | > 10 | > 10 | > 10 µM | > 10 µM |  |  |  |  |  |  |  |  | 
Cc1ccc2nc(NC(=O)CSC(=S)N3CCN(Cc4ccccc4)CC3)sc2c1 | > 100 µM | > 100 µM | > 100 µM | > 100 µM | > 100 µM | > 100 µM | > 100 µM | > 100 | > 100 | > 100 µM | > 100 µM | > 100 | > 100 | > 100 | > 100 | > 100 | > 100 | > 100 | 75.9 | > 100
COc1cc2c3c(n(CCCn4cccn4)c(=O)c2cc1OC)-c1cc2c(cc1C3=O)OCO2 | 7.13 µM | 64 µM | > 100 µM | > 100 µM | > 100 µM | > 100 µM | 54.7 µM | > 100 | > 100 | 22.4 µM | > 100 µM | 0.586 | 2.87 | 9.92 | 59.9 | 2.83 | 4.13 | 1.08 | 2.44 | 5.25
CCCCCn1ncc(-c2c(O)c(O)cc3c(O)c(-c4c(C)cc5c(-c6cnn(CCCCC)n6)c(O)c(O)cc5c4O)c(C)cc23)n1 | 0.471 µM | 4.24 µM | 4.27 µM | 4.47 µM | 6.12 µM | 6.81 µM | 3.2 µM | 2.64 | 5.26 | 4.9 µM | 3.22 µM | 0.147 | 0.117 | 0.792 | 0.147 | 0.125 | 0.142 | 0.115 | 0.109 | 0.595
